Results published in patent US5821240A, “Pyrimido[5,4]-dipyrimidines, pharmaceuticals containing them, their use and processes for the preparation thereof” (Dr. Karl Thomae GmbH, priority 1996, dated 1998).

Columns and labels:
[1] = test system: F/L-HERc cells expressing human EGF-R; test: Inhibition of EGF-dependent proliferation of F/L-HERc cells; assay type: cell-based, murine cell line; human EGF-R; conditions: EGF 20 ng/ml, 37° C., 48 hours
Description: (§1) In this case, an interleukin-3 (IL-3)-dependent cell line of murine origin was used and was genetically modified in such a way that it expresses functional human EGF-R. Proliferation of these cells, which are called F/L-HERc, can therefore be stimulated either by murine IL-3 or by EGF (see von Ruden, T. et al. in EMBO J. 7, 2749-2756 (1988) and Pierce, J. H. et al. in Science 239, […] (1988)).
(§2) The starting material for the F/L-HERc cells was the cell line FDC-P1 whose preparation has been described by Dexter, T. M. et al. in J. Exp. Med. 152, 1036-1047 (1980). However, it is also possible as an alternative to use other growth factor-dependent cells (see, for example, Pierce, J. H. et al. in Science 239, 628-631 (1988), Shibuya, H. et al. in Cell 70, 57-67 (1992) and Alexander, W. S. et al. in EMBO J. 10, 3683-3691 (1991)). Recombinant retroviruses as described in von Ruden, T. et al., EMBO J. 7, 2749-2756 (1988) Were used for expression of the human EGF-R cDNA (see Ullrich, A. et al. in Nature 309, 418-425 (1984)), with the difference that the retroviral vector LXSN (see Miller, A. D. et al. in BioTechniques 7, 980-990 (1989)) was employed for expression of the EGF-R cDNA, and the line GP+E86 (see Markowitz, D. et al. in J. Virol. 62, 1120-1124 (1988)) was used as packaging cell.
(§3) F/L-HERc cells were cultivated in RPMI/1640 medium (BioWhittaker), supplemented with 10% fetal calf serum (FCS, Boehringer Mannheim), 2 mM glutamine (BioWhittaker), standard antibiotics and 20 ng/ml human EGF (Promega), at 37° C. and 5% CO2. To investigate the inhibitor activity of the compounds according to the invention, 1.5×10^4 cells were cultivated in the above medium (200 μl) per well in triplicates in 96-well plates, stimulating proliferation of the cells either with EGF (20 ng/ml) or with murine IL-3. The source used for IL-3 was culture supernatants from the cell line X63/0 mIL-3 (see Karasuyama, H. et al. in Eur. J. Immunol. 18, 97-104 (1988)). The compounds according to the invention were dissolved in 100% dimethyl sulphoxide (DMSO) and added in various dilutions to the cultures, with the maximum DMSO concentration being 1%. The cultures were incubated at 37° C. for 48 hours.
(§4) To determine the inhibitory activity of the compounds according to the invention, the relative cell count was measured in O.D. units using the Cell Titre 96™ AQueous Non-Radioactive Cell Proliferation Assay (Promega). The relative cell count was calculated as a percent of the control (F/L-HERc cells without inhibitor), and the concentration of active substance which inhibits the proliferation of the cells by 50% (IC50) was inferred.

[2] = test system: F/L-HERc cells; test: Inhibition of IL-3-dependent proliferation of F/L-HERc cells; assay type: cell-based; conditions: Mus musculus, murine IL-3, 37° C., 48 hours
Description: as §1, §2, §3, §4

Compound | IC50 [1] | IC50 [2]
NC1CCCN(c2ncc3ncnc(Nc4ccc(F)c(Cl)c4)c3n2)CC1 (stereo not shown) [1(56), 4-[(3-Chloro-4-fluorophenyl)amino]-6-[4-amino-1-azacycloheptyl]pyrimido[5,4-d]pyrimidine] | 40 nM | > 1000 nM
CC(N)CNc1ncc2ncnc(Nc3ccc(F)c(Cl)c3)c2n1 (stereo not shown) [1(11), 4-[(3-Chloro-4-fluorophenyl)amino]-6-[2-amino-1-propylamino]pyrimido[5,4-d]pyrimidine] | 75 nM | > 10000 nM
CN1CCN(C2CCC(Nc3ncc4ncnc(Nc5ccc(F)c(Cl)c5)c4n3)CC2)CC1 (stereo not shown) [1(46), 4-[(3-Chloro-4-fluorophenyl)amino]-6-[4-(1-methyl-4-piperazinyl)cyclohexylamino]pyrimido[5,4-d]pyrimidine] | 2 nM | > 1000 nM
CC(C)(C)OC(=O)N1CCC(Nc2ncc3ncnc(Nc4ccc(F)c(Cl)c4)c3n2)CC1 [1(2), 4-[(3-Chloro-4-fluorophenyl)amino]-6-[1-tert-butyloxycarbonyl-4-piperidinylamino]pyrimido[5,4-d]pyrimidine] | 44 nM | > 10000 nM
NCCCNc1ncc2ncnc(Nc3ccc(F)c(Cl)c3)c2n1 [1(9), 4-[(3-Chloro-4-fluorophenyl)amino]-6-[3-aminopropylamino]pyrimido[5,4-d]pyrimidine] | 18 nM | > 10000 nM
COC(=O)NC1CCN(c2ncc3ncnc(Nc4ccc(F)c(Cl)c4)c3n2)CC1 [1(1), 4-[(3-Chloro-4-fluorophenyl)amino]-6-[4-methoxycarbonylamino-1-piperidinyl]pyrimido[5,4-d]pyrimidine] | 34 nM | > 10000 nM
CC(C)(C)OC(=O)N1CCCC(Nc2ncc3ncnc(Nc4ccc(F)c(Cl)c4)c3n2)CC1 (stereo not shown) [1(57), 4-[(3-chloro-4-fluorophenyl)amino]-6-[1-tert-butyloxy-carbonyl-4-(azacycloheptyl)amino]pyrimido[5,4-d]pyrimidine] | 88 nM | > 10000 nM
Fc1ccc(Nc2ncnc3cnc(N4CCC(N5CCOCC5)CC4)nc23)cc1Cl [1(30), 4-[(3-Chloro-4-fluorophenyl)amino]-6-[4-(morpholino)-1-Piperidinyl]pyrimido[5,4-d]pyrimidine] | 125 nM | > 20000 nM
NCC1CCCN(c2ncc3ncnc(Nc4ccc(F)c(Cl)c4)c3n2)C1 (stereo not shown) [1(61), 4-[(3-Chloro-4-fluorophenyl)amino]-6-[3-aminomethyl-1-piperidinyl]pyrimido[5,4-d]pyrimidine] | 50 nM | > 1000 nM
NCC1CCCC(CNc2ncc3ncnc(Nc4ccc(F)c(Cl)c4)c3n2)C1 (stereo not shown) [1(38), 4-[(3-Chloro-4-fluorophenyl)amino]-6-[3-(aminomethyl)cyclohexylmethylamino]pyrimido[5,4-d]pyrimidine] | 51 nM | > 1000 nM
CN1CCC(C2CCN(c3ncc4ncnc(Nc5ccc(F)c(Cl)c5)c4n3)CC2)CC1 [1(41), 4-[(3-Chloro-4-fluorophenyl)amino]-6-[4-(1-methyl-4-piperidinyl)-1-piperidinyl]pyrimido[5,4-d]pyrimidine] | 200 nM | > 1000 nM
O=C(N1CCOCC1)N1CCN(CCNc2ncc3ncnc(Nc4ccc(F)c(Cl)c4)c3n2)CC1 [1(52), 4-[(3-Chloro-4-fluorophenyl)amino]-6-[2-(4-(morpholinocarbonyl)-1-piperazinyl)ethylamino]pyrimido[5,4-d]pyrimidine] | 10 nM | > 1000 nM
CN1CCC(N(C)c2ncc3ncnc(Nc4ccc(F)c(Cl)c4)c3n2)CC1 [1(28), 4-[(3-Chloro-4-fluorophenyl)amino]-6-[N-methyl-N-(1-methyl-4-piperidinyl)amino]pyrimido[5,4-d]pyrimidine] | 14 nM | 10000 nM
COC(=O)[C@H]1CC[C@H](Nc2ncc3ncnc(Nc4cc(Cl)c(N)c(Cl)c4)c3n2)CC1 [1(15), 4-[(4-Amino-3,5-dichlorophenyl)amino]-6-[(trans-4-methoxycarbonylcyclohexyl)amino]pyrimido[5,4-d]pyrimidine] | 15 nM | > 10000 nM
